Measured values: patent US10106532B2, “Inhibitors of beta-hydroxylase for treatment of cancer” (MIDWESTERN UNIVERSITY, priority 2012, dated 2018)
Entries after “also recorded” stand apart in the source; their conditions may differ.

Legend:
[1] = test system: FOCUS cells; assay: MTT assay (cell proliferation, metabolic activity); type: cell-based, human; conditions: 24 hours
Protocol: (§1) A MTT assay was performed to evaluate the effect of MO-1-1100 on cell proliferation and viability. MTT is reduced to purple formazan in living cells. FOCUS cells were used as a high ASPH expressing human HCC cell line. […] The MTT assay measures cellular metabolic activity via NAD(P)H-dependent cellular oxidoreductase enzymes. […] In order to evaluate the effect of long-term exposure of MO-1-1100, the colony formation assay (an assay of malignant potential and phenotype) in which cells were treated with inhibitor for 3 weeks was performed.

[2] = test system: NIH-3T3 cells; assay: MTT assay (cell proliferation, metabolic activity); type: cell-based, mouse
Protocol: as §1

[3] = test system: Hep3B; assay: cell viability; type: cell-based, human; conditions: 5 μM
[4] = test system: HepG2; assay: cell viability; type: cell-based, human; conditions: 5 μM
[5] = test system: FOCUS cells; assay: anchorage independent growth in soft agar; type: cell-based, human; conditions: 3 weeks of culture
Protocol: The effect of MO-1-1100 on anchorage independent growth in soft agar was evaluated. The ability of forming colonosphere in soft agar is considered to be a rigid test for tumorigenic potential. ASPH expression results in cells acquiring the ability to form colonospheres in soft agar. […] In order to evaluate the effect of ASPH inhibitor for anchorage independent colony formation, FOCUS cells were incubated in soft agar with or without this ASPH enzymatic inhibitor. After 3 weeks incubation, MO-1-1100 reduced colonosphere formation of FOCUS cells (FIG. 9A). […] This assay is a standard method to monitor malignant growth that reflects the ability to form tumors that grow aggressively in vivo.

[6] = target: T1, ASPH (Homo sapiens, UniProt Q12797); assay: high throughput 14CO2 capture enzymatic assay for ASPH β-hydroxylase activity (ASPH mAb capture from lysates of treated FOCUS cells); type: biochemical; parameters: endogenous in cells; host or cells: FOCUS cells (human hepatocellular carcinoma line)
T1 sequence (Q12797 1-758): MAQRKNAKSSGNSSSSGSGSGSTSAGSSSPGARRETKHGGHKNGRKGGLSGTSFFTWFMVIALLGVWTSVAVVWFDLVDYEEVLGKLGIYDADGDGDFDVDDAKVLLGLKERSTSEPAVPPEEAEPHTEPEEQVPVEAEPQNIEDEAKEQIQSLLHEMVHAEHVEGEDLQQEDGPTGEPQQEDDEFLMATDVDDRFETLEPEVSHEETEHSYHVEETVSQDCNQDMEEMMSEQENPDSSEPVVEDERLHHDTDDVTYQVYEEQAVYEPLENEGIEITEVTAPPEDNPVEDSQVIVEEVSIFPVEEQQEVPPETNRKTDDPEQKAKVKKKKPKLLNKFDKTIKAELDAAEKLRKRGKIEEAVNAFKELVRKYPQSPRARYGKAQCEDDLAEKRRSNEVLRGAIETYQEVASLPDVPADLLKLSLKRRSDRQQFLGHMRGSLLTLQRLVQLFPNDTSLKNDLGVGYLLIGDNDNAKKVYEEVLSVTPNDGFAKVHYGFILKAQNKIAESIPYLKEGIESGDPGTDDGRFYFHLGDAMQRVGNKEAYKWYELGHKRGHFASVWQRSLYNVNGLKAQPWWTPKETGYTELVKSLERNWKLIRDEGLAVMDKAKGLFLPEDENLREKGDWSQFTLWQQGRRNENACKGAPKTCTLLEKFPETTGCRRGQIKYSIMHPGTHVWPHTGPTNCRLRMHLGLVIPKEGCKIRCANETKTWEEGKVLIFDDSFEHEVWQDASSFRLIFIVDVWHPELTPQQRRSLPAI
Protocol: In yet another aspect, the disclosure provides a method determining ASPH activity by contacting an EGF-like domain peptide with a detectably-labeled α-ketoglutarate and ASPH enzyme and measuring β-hydroxylase activity. In one embodiment, said α-ketoglutarate is ^14C-labelled, and wherein β-hydroxylase activity is measured by detecting liberated ^14CO2. In one embodiment, said liberated ^14CO2 is captured on a filter and radioactivity quantified. […] In one embodiment, said EGF-like domain comprises the amino acid sequence of […] (SEQ ID NO:1). In one embodiment, said EGF-like domain peptide comprises the consensus sequence of CDXXXCXXKXGNGXCDXXCNNAACXXDGXDC (SEQ ID NO: 2).
FIG. 3A is a diagram of the biochemical reaction catalyzed by ASPH derived from PC cell lysates. FIG. 3B is a cartoon illustrating the read-out to quantify ASPH activity in PC cells and tumors. FIG. 3C is an image of membrane was obtained by a phosphor-imager after a 16 hour exposure of the trapping filter to a phospho-screen. FIG. 3D is a bar graph showing intensities were calculated by Image J software and compared to a DMSO control. Vertical bars represent standard deviation. These figures show methods of measurement and data relating to ASPH catalytic activity.
EGF and EGF-like domains are well known in the art and generally include six cysteine residues which have been shown (in EGF) to be involved in disulfide bonds. The main structure is a two-stranded beta-sheet followed by a loop to a C-terminal short two-stranded sheet. Subdomains between the conserved cysteines vary in length. Examples include those described in Davis, C G, 1990, New Biol. 2(5):410-9; Blomquist et al., 1984, Proc Natl Acad Sci USA. 81(23):7363-7; Hommel et al., […], J Mol Biol. 227(1):271-82; Doolittle et al., 1984, Nature. 307(5951):558-60; Appella et al., 1988, FEBS Lett. 231(1):1-4; Sorkin A., 2001, Biochem Soc Trans. August; 29(Pt 4):480-4; each of which is hereby incorporated by reference). FIGS. 3A-C represents the strategy for development and characterization of the performance of an assay to measure ASPH enzymatic activity. FIG. 3A describes the biochemical reaction catalyzed by ASPH. FIG. 3B depicts the read-out of the assay. Protein lysates were extracted from FOCUS cells (high level of ASPH cell surface expression) treated with 1-10 μM of each parent compound for 24 hours. The lysates were added into 96 well-plates coated with ASPH monoclonal antibodies (mAbs) to add an antigen specific (ASPH) capture step to the assay design. After incubation and washing, only ASPH is captured on each well. The reaction is carried out with 60 μM of an EGF domain containing 39AA peptide, 100 μM FeCl2 and 40 μM ^14C labeled α-ketoglutarate were added into each well. The ^14CO2 was captured on a glass fiber membrane soaked in Ca(OH)2. […] The compound was further characterized for clinical use as an anti-tumor agent for PC and HCC and other ASPH-expressing tumors.

## NC1=C(OS(=O)(=O)Cc2ccccc2)C(=O)C(c2ccc(Cl)cc2)O1 (racemic) [MO-1-1100]
[1]
  OD (optical density) value, MTT: dose-dependently decreased
[2]; FOCUS (express ASPH) versus NIH-3T3 (do not express ASPH)
  specificity for the β-hydroxylase activity of ASPH: highly specific; also recorded: more highly specific
[2]; NIH-3T3 cells not expressing ASPH
  OD value of MTT: no effect; also recorded: resistant
[3]
  cell viability, inhibition rate: 60%
[4]
  cell viability, inhibition rate: 59%
[5]
  number and size of colonies in soft agar: dose-dependent and highly significant reduction; also recorded: reduces
[6]
  identified as hits (screening for inhibition of β-hydroxylase activity): identified as hits
[6]; 1 μM
  β-hydroxylase activity: substantially inhibits
[6]; concentration not given
  ASPH enzymatic inhibitory activity (β-hydroxylase): inhibit
